Records with an inconclusive call do not appear. Calls of active or inactive are those of the source. No rule for the calls is given here.
The molecules below were run on S. typhimurium/E. coli reverse mutation, colony counts (assay: Bacterial reverse mutation test (aka Ames test) summary data).
Method in brief: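 S. typhimurium his⁻ strains (TA97–TA1538) and E. coli WP2 uvrA pKM101 trp⁻, dosed over a range with or without rat, hamster or mouse liver S9. Preincubated 20 min at 37° C (or plate incorporation), plated in agar, incubated usually two days. Revertant colonies counted against negative controls.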
With COc1ccc2cc3[n+](cc2c1OC)CCc1cc2c(cc1-3)OCO2 the outcome was “inactive; negative”.
For CC(N)C(=O)O (configuration not stated), the outcome was “inactive; negative”.
For CN(C)N=O, the outcome was “active; positive”.
O=[N+]([O-])c1cc(Cl)c(Cl)c(Cl)c1 was tested, and the outcome was “active; positive”.
For CC(C)(O)C#N, the outcome was “inactive; negative”.
In the case of CN1CCC(CN2c3ccccc3Sc3ccccc32)C1 (configuration not stated), the outcome is reported as “inactive; negative”.
With O=[N+]([O-])c1cccc2c([N+](=O)[O-])cccc12 the outcome was “active; positive”.
Brc1c(Br)c(Br)c(Br)c(Br)c1Br was tested, and the outcome was “inactive; negative”.
With CC(C)(c1ccc(O)cc1)c1ccc(O)cc1 the outcome was “inactive; negative”.
O=C(O)c1cc(O)c2c(c1)[C@H]([C@H]1c3cc(C(=O)O)cc(O)c3C(=O)c3c(O[C@@H]4O[C@H](CO)[C@@H](O)[C@H](O)[C@H]4O)cccc31)c1cccc(O[C@@H]3O[C@H](CO)[C@@H](O)[C@H](O)[C@H]3O)c1C2=O was tested, and the outcome was “inactive; negative”.
With O=C(O)c1ccc(Cl)cc1Cl the outcome was “inactive; negative”.
In the case of O=C1C(c2[nH]c3ccccc3c2O)=Nc2ccccc21, the outcome is reported as “active; positive”.
For COc1cc(S(=O)(=O)O)c(C)cc1N=Nc1c(O)ccc2cc(S(=O)(=O)O)ccc12, the outcome was “inactive; negative”.
In the case of O=NN1CCOCC1, the outcome is reported as “active; positive”.
With CC(C)(c1cc(Br)c(OCC(Br)CBr)c(Br)c1)c1cc(Br)c(OCC(Br)CBr)c(Br)c1 (configuration not stated) the outcome was “inactive; negative”.
With CCNc1ccc([N+](=O)[O-])cc1C the outcome was “active; positive”.
With CCc1ccc(C(c2ccc(CC)cc2)C(Cl)Cl)cc1 the outcome was “active; positive”.
In the case of COc1ccc(CN(CCN(C)C)c2ncccn2)cc1, the outcome is reported as “inactive; negative”.
C[n+]1cccc(C(=O)[O-])c1 was tested, and the outcome was “inactive; negative”.
With CS(C)=O the outcome was “inactive; negative”.
CC(=O)Nc1ccccc1N was tested, and the outcome was “active; positive”.
In the case of O=C([O-])c1ccccc1C1c2ccc([O-])c(Br)c2Oc2c1ccc(O)c2Br.[Zr+2], the outcome is reported as “inactive; negative”.
CC(C)(COCC1CO1)COCC1CO1 (configuration not stated) was tested, and the outcome was “active; positive”.
For CC(=O)OCCOCCOCCOC(C)=O, the outcome was “active; positive”.
Nc1ccccc1C(=O)OCC=Cc1ccccc1 was tested, and the outcome was “inactive; negative”.
With CN(C)c1nc(=O)n(C2CCCCC2)c(=O)n1C the outcome was “inactive; negative”.
C[C@H](CCC(=O)O)[C@H]1CC[C@H]2[C@@H]3CC[C@@H]4C[C@H](O)CC[C@]4(C)[C@H]3CC[C@]12C was tested, and the outcome was “inactive; negative”.
S=C=Nc1cccc2ccccc12 was tested, and the outcome was “active; positive”.
With NS(=O)(=O)c1cc2c(cc1Cl)NCNS2(=O)=O the outcome was “inactive; negative”.
For c1ccc(NNc2ccccc2)cc1, the outcome was “active; positive”.
For COC(=O)NC(=S)Nc1ccccc1NC(=S)NC(=O)OC, the outcome was “active; positive”.
In the case of Cc1ccc([N+](=O)[O-])cc1C(=O)O, the outcome is reported as “active; positive”.
CC(C)C(C)(C)C(C)(C)C(C)(C)S was tested, and the outcome was “inactive; negative”.
In the case of CCOc1ccc(NC(C)=O)cc1[N+](=O)[O-], the outcome is reported as “active; positive”.
CCCC=O was tested, and the outcome was “inactive; negative”.
In the case of O=C(Cc1ccccc1)OCc1ccccc1, the outcome is reported as “inactive; negative”.
For CCCCOC(=O)c1ccccc1C(=O)OCCCC, the outcome was “inactive; negative”.
With Cc1cc(=O)[nH]c(=S)[nH]1 the outcome was “inactive; negative”.
For NC(=O)CCCCC(N)=O, the outcome was “inactive; negative”.
For C=C(C)C(=O)OCC(Br)CBr (configuration not stated), the outcome was “active; positive”.
For Cc1cc2nc(N)sc2cc1C, the outcome was “active; positive”.
CCCCNCCCC was tested, and the outcome was “inactive; negative”.
For C=C(C)[C@H]1CC=C(C)C(=O)C1, the outcome was “inactive; negative”.
With Oc1ccc(Cl)c(Cl)c1Cl the outcome was “inactive; negative”.
For C=CC(=O)OCC(Br)CBr (configuration not stated), the outcome was “active; positive”.
O=C1OC(=O)c2cc([N+](=O)[O-])ccc21 was tested, and the outcome was “active; positive”.
In the case of Nc1ccc(NCCO)c([N+](=O)[O-])c1, the outcome is reported as “active; positive”.
BrC(Br)Br was tested, and the outcome was “active; positive”.
OC[C@@H](O)[C@@H](O)[C@H](O)[C@H](O)CO was tested, and the outcome was “inactive; negative”.
In the case of ClSC(Cl)(Cl)Cl, the outcome is reported as “active; positive”.
In the case of c1ccccc1, the outcome is reported as “inactive; negative”.
O=C(O)CC(=O)O was tested, and the outcome was “inactive; negative”.
With ON=C1CCCCC1 the outcome was “active; positive”.
In the case of C=O, the outcome is reported as “active; positive”.
For CNC(C)Cc1ccccc1 (configuration not stated), the outcome was “inactive; negative”.
In the case of O=[N+]([O-])c1c(O)c(Cl)cc(Cl)c1Cl, the outcome is reported as “inactive; negative”.
With CC[Si](Cl)(Cl)CC the outcome was “inactive; negative”.
With CCCCN the outcome was “inactive; negative”.
For [CH3][Sn]([Cl])([Cl])[Cl], the outcome was “inactive; negative”.
In the case of Nc1ccc(S(=O)(=O)O)cc1, the outcome is reported as “inactive; negative”.
With CN(C)c1ccc(N=O)cc1 the outcome was “active; positive”.
In the case of COP(=S)(OC)Oc1ccc(SC)c(C)c1, the outcome is reported as “active; weakly positive”.
For OCC(CO)(CCBr)CCBr, the outcome was “active; positive”.
O=[N+]([O-])c1ccc(CCO)cc1 was tested, and the outcome was “active; positive”.
With CCCCC(CC)CO (configuration not stated) the outcome was “inactive; negative”.
In the case of NC1CCCCC1, the outcome is reported as “inactive; negative”.
In the case of O=c1ccc(=O)[nH][nH]1, the outcome is reported as “inactive; negative”.
With CN(C)CCN(C)C the outcome was “inactive; negative”.
With Nc1cc(Cl)c([N+](=O)[O-])cc1O the outcome was “active; positive”.
C1OCOCO1 was tested, and the outcome was “inactive; negative”.
With Cc1ccccc1C(N)=O the outcome was “inactive; negative”.
In the case of Cc1cccc(C(=O)O)c1, the outcome is reported as “inactive; negative”.
Nc1c2c(nc3ccccc13)CCCC2 was tested, and the outcome was “active; positive”.
C=CC(=O)OCCN(C)C was tested, and the outcome was “inactive; negative”.
With C=CC(=O)OC the outcome was “inactive; negative”.
For [Cl][In]([Cl])[Cl], the outcome was “inactive; negative”.
In the case of c1ccc2c(c1)CCCC2, the outcome is reported as “inactive; negative”.
In the case of O=C1C2CC=CCC2C(=O)N1SC(Cl)(Cl)Cl (configuration not stated), the outcome is reported as “active; positive”.
For COc1ccc(C=O)cc1, the outcome was “inactive; negative”.
With FC(F)(F)c1ccccc1 the outcome was “inactive; negative”.
In the case of NCCNCCN, the outcome is reported as “inactive; negative”.
With O=C(Cl)c1ccccc1F the outcome was “active; positive”.
CN was tested, and the outcome was “inactive; negative”.
For NCCC(=O)O, the outcome was “inactive; negative”.
With CCC[CH2][Sn]([CH2]CCC)([CH2]CCC)[O][Sn]([CH2]CCC)([CH2]CCC)[CH2]CCC the outcome was “inactive; negative”.
For CCCC(=O)c1cc(O)c(O)cc1O, the outcome was “active; positive”.
In the case of Cc1ccc2c(C)cccc2c1, the outcome is reported as “inactive; negative”.
CCCN(CCC)C(=O)SCC was tested, and the outcome was “inactive; negative”.
N#CCBr was tested, and the outcome was “inactive; negative”.
For COC(=O)c1ccccc1O, the outcome was “active; weakly positive”.
In the case of O=CNc1nc(-c2ccc([N+](=O)[O-])o2)cs1, the outcome is reported as “active; positive”.
In the case of Nc1ccc2cc3ccccc3cc2c1, the outcome is reported as “active; positive”.
For O=S(O)c1ccc(Cl)cc1, the outcome was “inactive; negative”.
Nc1nc(-c2ccccc2)cs1 was tested, and the outcome was “active; positive”.
In the case of COc1c(C(C)(C)C)cc([N+](=O)[O-])c(C)c1[N+](=O)[O-], the outcome is reported as “inactive; negative”.
For c1cc(OCC2CO2)cc(OCC2CO2)c1 (configuration not stated), the outcome was “active; positive”.
c1cc2ccc3cccc4ccc(c1)c2c34 was tested, and the outcome was “active; positive”.
For Nc1c(Cl)c(Cl)nc(C(=O)O)c1Cl, the outcome was “inactive; negative”.
In the case of O=S(=O)([O-])[O-].[O]=[V+2], the outcome is reported as “inactive; negative”.
With Nc1ccc(F)cc1F the outcome was “active; positive”.
For CCOc1cc(C=O)ccc1O, the outcome was “inactive; negative”.
CC(C)c1ccccc1 was tested, and the outcome was “inactive; negative”.
For COC(=O)/C=C/C(C)=C\C=C\C(C)=C\C=C\C=C(C)\C=C\C=C(C)\C=C\C(=O)O, the outcome was “active; positive”.
In the case of CCC=O, the outcome is reported as “inactive; negative”.
In the case of c1ccc2c(c1)CCNC2, the outcome is reported as “inactive; negative”.
In the case of COP(=O)(OC)C(O)C(Cl)(Cl)Cl (configuration not stated), the outcome is reported as “active; weakly positive”.
Nc1cc([N+](=O)[O-])cc(Cl)c1O was tested, and the outcome was “active; positive”.
c1ccc(Oc2ccccc2)cc1 was tested, and the outcome was “inactive; negative”.
With O=C(O)CBr the outcome was “active; positive”.
O=[N+]([O-])c1ccc2c(c1)Cc1cccc([N+](=O)[O-])c1-2 was tested, and the outcome was “active; positive”.
For NS(=O)(=O)c1cc2c(cc1Cl)NC=NS2(=O)=O, the outcome was “inactive; negative”.
CC(=O)NS(=O)(=O)c1ccc(N)cc1 was tested, and the outcome was “inactive; negative”.
For c1ccc2scnc2c1, the outcome was “inactive; negative”.
In the case of CC1=CC(C)(C)Nc2ccccc21, the outcome is reported as “inactive; negative”.
CC(C)[C@@H]1CC[C@@H](C)C[C@@H]1O was tested, and the outcome was “inactive; negative”.
In the case of Oc1cccc(Cl)c1, the outcome is reported as “inactive; negative”.
With c1ccc(Nc2ccc3ccccc3c2)cc1 the outcome was “inactive; negative”.
O=C1C(Cl)=C(Cl)C(=O)C(Cl)=C1Cl was tested, and the outcome was “active; positive”.
For c1ccc2c(c1)ccc1ccccc12, the outcome was “active; weakly positive”.
For O=C(O)COc1cc(Cl)c(Cl)cc1Cl, the outcome was “inactive; negative”.
C=CC#N was tested, and the outcome was “active; positive”.
For NC(Cc1ccc(F)cc1)C(=O)O (configuration not stated), the outcome was “inactive; negative”.
CCCCCc1cc(O)cc(O)c1 was tested, and the outcome was “inactive; negative”.
Cc1cc(-c2cc(C)c(N)c(C)c2)cc(C)c1N was tested, and the outcome was “inactive; negative”.
Cc1ccc(S(N)(=O)=O)cc1 was tested, and the outcome was “inactive; negative”.
CC12CCC(C1)C(C)(C)C2=O (configuration not stated) was tested, and the outcome was “inactive; negative”.
For COc1cccc2sc(N)nc12, the outcome was “active; positive”.
For O=C(O)CCC(=O)OC[C@@H](NC(=O)C(Cl)Cl)[C@H](O)c1ccc([N+](=O)[O-])cc1, the outcome was “inactive; negative”.
CCCCCCCCCCCCCCC1CO1 (configuration not stated) was tested, and the outcome was “inactive; negative”.
[K+] was tested, and the outcome was “inactive; negative”.
In the case of CCOCCOCC, the outcome is reported as “active; positive”.
With Oc1cccc2cc3cccc(O)c3c(O)c12 the outcome was “inactive; negative”.

Source: PubChem BioAssay AID2202554 (NIEHS Division of Translational Toxicology (DTT))
